Measurements: patent publication US20030032774A1, “Novel opioid peptides for the treatment of pain” (priority 1994, published 2003)
Like-named read-outs stand apart in the source and are kept apart here. Square brackets hold non-standard residues; d marks the D form. Peptide text beside a SMILES is read from it. Phe(4-NO2) = N[C@@H](Cc1ccc([N+](=O)[O-])cc1)C(=O)O; Phe(4-F) = N[C@@H](Cc1ccc(F)cc1)C(=O)O; 1Nal = N[C@@H](Cc1cccc2ccccc12)C(=O)O; Dmt = Cc1cc(O)cc(C)c1C[C@H](N)C(=O)O; dNva = CCC[C@@H](N)C(=O)O

How the values were obtained:
δ receptor = δ receptor (Rattus norvegicus, UniProt P33533); experiment: biochemical
Sequence of δ receptor (P33533 whole entry): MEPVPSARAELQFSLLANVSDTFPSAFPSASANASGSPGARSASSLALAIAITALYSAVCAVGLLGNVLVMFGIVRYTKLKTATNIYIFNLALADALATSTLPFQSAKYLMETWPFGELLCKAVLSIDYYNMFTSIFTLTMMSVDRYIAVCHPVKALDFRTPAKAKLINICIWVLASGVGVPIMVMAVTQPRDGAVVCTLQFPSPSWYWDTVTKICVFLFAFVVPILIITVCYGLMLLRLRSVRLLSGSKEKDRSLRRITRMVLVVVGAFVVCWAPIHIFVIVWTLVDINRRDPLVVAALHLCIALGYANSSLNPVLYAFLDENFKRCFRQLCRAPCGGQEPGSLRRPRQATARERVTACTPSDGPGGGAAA
Protocol: (§1) PBQ (phenyl-ρ-benzoquinone) induced writhing in mice is an assessment of both central and peripheral analgesia (see Sigmund, et al., Proc. Soc. Exp. Biol. Med. 95:729 (1957)). Central analgesia is determined by the inhibition of a hot-plate response in mice (see, Wolfe, et al., J. Pharmacol. Exp. Ther. 80:300 (1944)). Assays measuring opioid receptor binding affinities for μ and δ receptors as well as the GPI assay were determined through experimental protocol set out in Schiller et al. (Biophys. Res. Commun. 85:1322 (1975)). The references by Sigmund, et al., Wolfe, et al., and Schiller, et al. are each hereby incorporated by reference.
(§2) Male Sprague-Dawley rats weighing between 350-450 g were sacrificed by inhalation of CO2. The rats were decapitated and the brains (minus the cerebellum) were removed, placed in ice-cold saline solution, and then homogenized in ice-cold 50 mM Tris buffer pH 7.4 (10 ml/brain). Membranes were centrifuged at 14000 rpm for 30 min. at 4° C. The pellets were re-suspended in approximately 6 ml/brain of ice-cold Tris buffer 50 mM pH 7.4 and stored at −78° C. until ready for use. Protein quantification of the brain homogenate was conducted according to protein assay kit purchased (Bio-Rad).
(§3) (^3H)-DAMGO and (^3H)-DAGLE were used as radioligands for the μ and δ receptors, respectively. Radioligand 50 μl, membranes 100 μl, and serially diluted test compound were incubated for 1 hr at 22° C. Nonspecific binding was determined using a 500 fold excess of unlabeled ligand in the presence of tracer and membranes. Free ligand was separated from bound by filtration through Whatman GF/B paper (presoaked in polyethylenimine 1% aqueous solution) and rinsing with ice-cold 50 mM Tris pH 7.4 using a Brandel cell harvester. The filters were dried and radioactivity was counted in a 24 well microplate in the presence of 500 μl scintillant per well. Radioactivity was measured using a Wallace 1450 Microbeta counter. Ki's for the various compounds were determined from the IC50 according to the Cheng and Prusoff equation.

[1] = system: hot-plate response in mice; conditions: in vivo; for Hot Plate: sc; for central analgesic effect in the mouse hot plate test: 100 mg/kg
mice = experiment: Lethal effects / safety in mice; conditions: 1-5 mg kg−1 i.v. bolus dose
μ receptors = μ receptors (Cavia porcellus, UniProt P97266); experiment: Guinea Pig Ileum (GPI) assay, longitudinal muscle preparation
Sequence of μ receptors (P97266 whole entry, looked up): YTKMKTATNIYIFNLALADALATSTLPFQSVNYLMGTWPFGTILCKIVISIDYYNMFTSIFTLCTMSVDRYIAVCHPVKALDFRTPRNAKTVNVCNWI
Protocol: The activity of the peptide compounds on μ receptors was determined using the Guinea Pig Ileum (GPI) assay (longitudinal muscle preparation) according to the procedures described in Schiller et al., Biophys. Res. Commun. 85:1322 (1975).

μ receptor = target: T1, μ receptor (Rattus norvegicus, UniProt P33535); experiment: Radioligand binding assay, μ opioid receptor ((3H)-DAMGO, brain membranes); conditions: for Binding Assay Kiδ Kiμ: selectivity ratio
T1 construct: the brains (minus the cerebellum) were removed, placed in ice-cold saline solution, and then homogenized; from tissue; host or cells: rat brain (minus cerebellum) membranes
T1 sequence (P33535 whole entry): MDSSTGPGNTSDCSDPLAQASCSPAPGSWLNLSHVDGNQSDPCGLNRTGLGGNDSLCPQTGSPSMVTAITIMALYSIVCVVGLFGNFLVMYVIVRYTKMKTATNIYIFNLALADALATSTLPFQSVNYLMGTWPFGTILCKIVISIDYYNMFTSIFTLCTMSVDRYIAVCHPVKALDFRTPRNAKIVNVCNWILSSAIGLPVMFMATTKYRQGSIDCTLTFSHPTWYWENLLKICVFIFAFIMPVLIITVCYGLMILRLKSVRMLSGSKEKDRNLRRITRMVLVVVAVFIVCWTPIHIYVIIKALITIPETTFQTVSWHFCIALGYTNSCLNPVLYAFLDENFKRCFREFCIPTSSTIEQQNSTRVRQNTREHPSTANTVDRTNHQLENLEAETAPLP
Protocol: as §1, §2, §3

[2] = system: PBQ induced writhing in mice; experiment: PBQ (phenylquinone)-induced writhing assay; type: in vivo, mouse; conditions: for Writhing ED50: Table 2, mouse; for ED50(PBQ): mouse s.c., 20 min post administration
Protocol: The test was performed on CD #1 male mice weighing between 18 and 22 g. Mice were weighed, marked and then injected, by the intraperitoneal route, with 0.3 ml/20 g by weight of a solution of phenylquinone at 0.02%. The contortions which appeared during a 15 minute time period following the injection were counted. The phenylquinone was injected at time intervals of 5, 20 or 60 minutes after administration of the compound (or medium, or standard) by subcutaneous route. It was injected at time intervals of 60 minutes after the administration of the compound (or medium, or standard) by oral route;
The 0.02% phenylquinone solution was prepared as follows: 20 mg of phenylquinone was dissolved in 5 ml ethanol 90% (Sigma). The dissolved phenylquinone was slowly added to 95 ml of distilled water continuously shaken and preheated (not boiled). The phenylquinone solution was, at all times protected from light and a new solution was prepared every day for the test. Each group usually contained 10 mice. If an antagonist, such as naloxone, was used, it was administered 20 minutes before the compound (or the medium, or the standard) by the intraperitoneal route.
Writhing assays were performed on CD#1 male mice weighing between […]. Assays were carried out as described in Example 3 and results are summarized below in Table 2.

## C[C@@H](NC(=O)[C@@H](N)Cc1ccc(O)cc1)C(=O)N[C@@H](Cc1ccccc1)C(=O)N[C@@H](Cc1ccccc1)C(N)=O [BCH1774, H-Tyr-D-Ala-Phe-Phe-NH2] (H-Y[dA]FF-NH2)
δ receptor; read-out: Binding Assay Kiδ, Table 2
  Ki: 626 nM
[1]; mouse
  Hot Plate: >100 mg/kg
mice
  lethal effects upon mice: exhibited lethal effects
μ receptors
  IC50: 3 nM
μ receptor; Table 1, read-out: Ki^μ
  Ki: 1.53 nM
μ receptor; Table 2, read-out: Binding Assay Kiμ
  Ki: 1.53 nM
μ receptor; Table 2
  Binding Assay Kiδ Kiμ: 409
[2]; 20 mg/kg s.c. BCH1774 vs 30 mg/kg s.c. BCH2463, FIG. 3
  duration of analgesic effect in writhing assay: lasted longer than for BCH2463
[2]
  Writhing ED50: 1.4 mg/kg
  ED50(PBQ): 1.4 mg/kg

## C[C@@H](NC(=O)[C@@H](N)Cc1ccc(O)cc1)C(=O)N[C@@H](Cc1ccccc1)C(=O)N[C@@H](Cc1ccc([N+](=O)[O-])cc1)C(N)=O [BCH1776, H-Tyr-D-Ala-Phe-Phe(4-NO2)—NH2] (H-Y[dA]F[Phe(4-NO2)]-NH2)
μ receptors; GPI(IC50), Table 1
  IC50: 8 nM
μ receptor; Ki^μ, Table 1
  Ki: 0.509 nM
[2]
  ED50(PBQ): 4 mg/kg

## C[C@@H](NC(=O)[C@@H](N)Cc1ccc(O)cc1)C(=O)N[C@@H](Cc1ccc([N+](=O)[O-])cc1)C(=O)N[C@@H](Cc1ccc([N+](=O)[O-])cc1)C(N)=O [BCH1777, H-Tyr-D-Ala-Phe(4-NO2)-Phe(4-NO2)—NH2] (H-Y[dA][Phe(4-NO2)][Phe(4-NO2)]-NH2)
μ receptors; GPI(IC50), Table 1
  IC50: 6 nM
μ receptor; Ki^μ, Table 1
  Ki: 0.826 nM
[2]
  ED50(PBQ): >20 mg/kg

## C[C@@H](NC(=O)[C@@H](N)Cc1ccc(O)cc1)C(=O)N[C@@H](Cc1ccccc1)C(=O)N[C@@H](Cc1cccc2ccccc12)C(N)=O [BCH1782, H-Tyr-D-Ala-Phe-1′-Nal-NH2] (H-Y[dA]F[1Nal]-NH2)
μ receptors; GPI(IC50), Table 1
  IC50: 2 nM
μ receptor; Ki^μ, Table 1
  Ki: 0.981 nM
[2]
  ED50(PBQ): >20 mg/kg

## C[C@@H](NC(=O)[C@@H](N)Cc1ccc(O)cc1)C(=O)N[C@@H](Cc1c[nH]c2ccccc12)C(=O)N[C@@H](Cc1ccccc1)C(N)=O [BCH1784, H-Tyr-D-Ala-Trp-Phe-NH2] (H-Y[dA]WF-NH2)
μ receptors; GPI(IC50), Table 1
  IC50: 20 nM
μ receptor; Ki^μ, Table 1
  Ki: 3.57 nM
[2]
  ED50(PBQ): >20 mg/kg

## C[C@@H](NC(=O)[C@@H](N)Cc1ccc(O)cc1)C(=O)N[C@@H](Cc1ccccc1)C(=O)N[C@@H](Cc1c[nH]c2ccccc12)C(N)=O [BCH1785, H-Tyr-D-Ala-Phe-Trp-NH2] (H-Y[dA]FW-NH2)
μ receptors; GPI(IC50), Table 1
  IC50: 16 nM
μ receptor; Ki^μ, Table 1
  Ki: 2.21 nM
[2]
  ED50(PBQ): >20 mg/kg

## CCC[C@@H](NC(=O)[C@@H](N)Cc1ccc(O)cc1)C(=O)N[C@@H](Cc1ccccc1)C(=O)N[C@@H](Cc1ccccc1)C(N)=O [BCH2462, H-Tyr-D-Nva-Phe-Phe-NH2] (H-Y[dNva]FF-NH2)
[1]
  central analgesic effect in the mouse hot plate test: No central analgesic effect was observed
[1]; mouse
  reaction time in the hot plate test: approximately 8 seconds
  Hot Plate: >100 mg/kg
mice
  lethal effects upon mice: exhibited lethal effects
[2]
  ED50(PBQ): 2.7 mg/kg

## N=C(N)NCCC[C@@H](NC(=O)[C@@H](N)Cc1ccc(O)cc1)C(=O)N[C@@H](Cc1ccccc1)C(=O)N[C@@H](Cc1ccccc1)C(N)=O [BCH2687, H-Tyr-D-Arg-Phe-Phe-NH2] (H-Y[dR]FF-NH2)
[1]
  central analgesic effect in the mouse hot plate test: No central analgesic effect was observed
[1]; mouse
  reaction time in the hot plate test: approximately 8 seconds
  Hot Plate: >100 mg/kg
[2]
  Writhing ED50: 0.5 mg/kg

## NC(=O)[C@H](Cc1ccccc1)NC(=O)[C@H](Cc1ccccc1)NC(=O)[C@@H](CS)NC(=O)[C@@H](N)Cc1ccc(O)cc1 [BCH2690, H-Tyr-D-Cys-Phe-Phe-NH2] (H-Y[dC]FF-NH2)
[1]; mouse
  Hot Plate: >100 mg/kg
[2]
  ED50(PBQ): 6.2 mg/kg

## Cc1cc(O)cc(C)c1C[C@H](N)C(=O)N[C@H](CO)C(=O)N[C@@H](Cc1ccccc1)C(=O)N[C@@H](Cc1ccccc1)C(N)=O [BCH2813, H-Dmt-D-Ser-Phe-Phe-NH2] (H-[Dmt][dS]FF-NH2)
[1]; mouse
  dose at which found to act centrally in the hot plate test: about 40 mg/kg
[2]
  ED50(PBQ): 0.15 mg/kg

## C[C@@H](NC(=O)[C@@H](N)Cc1ccc(O)cc1)C(=O)N[C@@H](Cc1ccc(F)cc1)C(=O)N[C@@H](Cc1ccc(F)cc1)C(N)=O [Compound #1B, H-Tyr-D-Ala-Phe(pF)-Phe(pF)-NH2] (H-Y[dA][Phe(4-F)][Phe(4-F)]-NH2)
δ receptor
  Ki: 200 nM
μ receptors; CPI IC50, Table 2
  IC50: 0.12 nM
μ receptor; Binding Assay Kiμ, Table 2
  Ki: 0.2 nM
μ receptor; Table 2
  Binding Assay Kiδ Kiμ: 998
[2]
  Writhing ED50: 0.2 mg/kg

## C[C@@H](NC(=O)[C@@H](N)Cc1ccc(O)cc1)C(=O)N[C@@H](Cc1ccc(F)cc1)C(=O)N[C@@H](Cc1ccccc1)C(N)=O [Compound #1C, H-Tyr-D-Ala-Phe(pF)-Phe-NH2] (H-Y[dA][Phe(4-F)]F-NH2)
δ receptor
  Ki: 201 nM
μ receptor; Binding Assay Kiμ, Table 2
  Ki: 0.36 nM
μ receptor; Table 2
  Binding Assay Kiδ Kiμ: 559
[2]
  Writhing ED50: 0.5 mg/kg

## N=C(N)NCCC[C@@H](NC(=O)[C@@H](N)Cc1ccc(O)cc1)C(=O)N[C@@H](Cc1ccc(F)cc1)C(=O)N[C@@H](Cc1ccc(F)cc1)C(N)=O [Compound #2B, H-Tyr-D-Arg-Phe(pF)-Phe(pF)-NH2] (H-Y[dR][Phe(4-F)][Phe(4-F)]-NH2)
δ receptor
  Ki: > 1000 nM
μ receptor; Binding Assay Kiμ, Table 2
  Ki: 0.22 nM
[2]
  Writhing ED50: 0.3 mg/kg

## N=C(N)NCCC[C@@H](NC(=O)[C@@H](N)Cc1ccc(O)cc1)C(=O)N[C@@H](Cc1ccc(F)cc1)C(=O)N[C@@H](Cc1ccccc1)C(N)=O [Compound #2C, H-Tyr-D-Arg-Phe(pF)-Phe-NH2] (H-Y[dR][Phe(4-F)]F-NH2)
δ receptor
  Ki: 952 nM
μ receptors; CPI IC50, Table 2
  IC50: 1.52 nM
μ receptor; Binding Assay Kiμ, Table 2
  Ki: 0.57 nM
μ receptor; Table 2
  Binding Assay Kiδ Kiμ: 1671
[2]
  Writhing ED50: 0.3 mg/kg

## H-Y[dS]FF-NH2 [BCH2463]
[1]
  central analgesic effect in the mouse hot plate test: No central analgesic effect was observed
[1]; mouse
  reaction time in the hot plate test: about 9 seconds
  Hot Plate: >100 mg/kg
[2]
  ED50(PBQ): 0.5 mg/kg
